{"source": "ChEMBL document CHEMBL5550207", "about": "“Alkaline Phosphatase Activated Near-Infrared Frequency Upconversion Photosensitizers for Tumor Photodynamic Therapy” (J Med Chem, 2024)", "key": {"A549 [1]": {"system": "A549", "test": "Phototoxicity in human A549 cells assessed as cell viability at upto 20 uM pre-irradiated with 808nm laser 1.5 W/cm2 for 10 mins and measured after 12 hrs by MTT assay relative to control", "format": "functional", "details": "time 730 min, 12.17 h, up to 20 µM"}, "A549 [2]": {"system": "A549", "test": "Phototoxicity in human A549 cells assessed as cell viability at 10 uM pre-irradiated with 808nm laser 1.5 W/cm2 for 10 mins and measured after 12 hrs by MTT assay relative to control", "format": "functional", "details": "A549, light or radiation study, 12.17 h, time 730 min, read-out: Activity"}, "A549 [3]": {"system": "A549", "test": "Phototoxicity in human A549 cells assessed as cell viability at 20 uM pre-irradiated with 808nm laser 1.5 W/cm2 for 10 mins and measured after 12 hrs by MTT assay relative to control", "format": "functional", "details": "A549, light or radiation study, 12.17 h, time 730 min, read-out: Activity"}, "A549 [4]": {"system": "A549", "test": "Induction of singlet oxygen production in human A549 cells at 10 uM preincubated for 65 mins followed by light irradiation with 808nm laser 1.5 W/cm2 for 10 mins by DCF-DA staining based confocal microscopy analysis", "format": "functional, cell-based", "details": "time 75.0 min"}, "A549 [5]": {"system": "A549", "test": "Phototoxicity in human A549 cells assessed as reduction in cell viability at upto 20 uM preincubated for 1 hr followed by light irradiation with 808nm laser 1.5 W/cm2 for 10 mins and measured after 4 hrs by Live/Dead dye staining assay", "format": "functional, cell-based", "details": "time 310.0 min"}, "A549 [6]": {"system": "A549", "test": "Induction of apoptosis in human A549 cells under light irradiation with 808nm laser 1.5 W/cm2 for 10 mins by annexin V-FITC/propidium iodide staining based flow cytometry", "format": "functional, cell-based"}, "[7]": {"test": "Induction of singlet oxygen production of the compound assessed as decrease in DPBF absorbance under laser irradiation with 808nm laser 1.5 W/cm2 for upto 15 mins in presence of alkaline phosphatase", "format": "physicochemical", "details": "isolated protein, 0.25 h"}, "A549 [8]": {"system": "A549", "test": "Photosensitization activity against human A549 cells overexpressing ALP assessed as increase in fluorescence intensity at 10 uM measured upto 60 mins by confocal fluorescent imaging based analysis", "format": "functional, cell-based"}, "A549 [9]": {"system": "A549", "test": "Photosensitization activity against human A549 cells overexpressing ALP assessed as increase in fluorescence intensity at 10 uM pretreated with Na3VO4 for 1 hr followed by compound addition and measured upto 60 mins by confocal fluorescent imaging based analysis", "format": "functional, cell-based", "details": "time <= 60.0 […]"}, "L02": {"system": "L02", "test": "Photosensitization activity against human L02 cells overexpressing ALP assessed as increase in fluorescence intensity at 10 uM pretreated with MgCl2 for 1 hr followed by compound addition by confocal fluorescent imaging based analysis", "format": "functional, cell-based"}, "[10]": {"test": "Cytotoxicity against human L02 cells assessed as survival rate measured after 12 hrs by MTT assay relative to control", "format": "toxicity, cell-based", "details": "read-out: Survival"}, "A549 [11]": {"system": "A549", "test": "Cytotoxicity against human A549 cells assessed as survival rate measured after 12 hrs relative to control", "format": "functional"}, "HeLa [12]": {"system": "HeLa", "test": "Cytotoxicity against human HeLa cells assessed as survival rate measured after 12 hrs relative to control", "format": "functional"}, "A549 [13]": {"system": "A549", "test": "Phototoxicity in human A549 cells assessed as decrease in survival rate at upto 10 uM pre-irradiated with 808nm laser 1.5 W/cm2 for 10 mins and measured after 12 hrs by MTT assay", "format": "functional, cell-based", "details": "time 730.0 min"}, "HeLa [14]": {"system": "HeLa", "test": "Phototoxicity in human HeLa cells assessed as decrease in survival rate at upto 10 uM pre-irradiated with 808nm laser 1.5 W/cm2 for 10 mins and measured after 12 hrs by MTT assay", "format": "functional, cell-based", "details": "time 730.0 min"}, "A549 [15]": {"system": "A549", "test": "Phototoxicity in human A549 cells assessed as decrease in survival rate at 10 uM pre-irradiated with 808nm laser 1.5 W/cm2 for 10 mins and measured after 12 hrs by MTT assay relative to control", "format": "functional", "details": "A549, light or radiation study, 12.17 h, time 730 min, read-out: Survival"}, "HeLa [16]": {"system": "HeLa", "test": "Phototoxicity in human HeLa cells assessed as decrease in survival rate at 10 uM pre-irradiated with 808nm laser 1.5 W/cm2 for 10 mins and measured after 12 hrs by MTT assay relative to control", "format": "functional", "details": "light or radiation study, 12.17 h, time 730 min, read-out: Survival"}, "A549 [17]": {"system": "A549", "test": "Induction of singlet oxygen production in human A549 cells assessed as increase in fluorescent signal at 10 uM preincubated for 65 mins followed by light irradiation with 808nm laser 1.5 W/cm2 for 10 mins in presence of Na3VO4 by DCF-DA staining based confocal microscopy analysis", "format": "functional, cell-based", "details": "time 75.0 min"}, "A549 [18]": {"system": "A549", "test": "Phototoxicity in human A549 cells assessed as reduction in cell viability at 10 uM preincubated for 1 hr followed by light irradiation with 808nm laser 1.5 W/cm2 for 10 mins and measured after 4 hrs in presence of Na3VO4 by Live/Dead dye staining assay", "format": "functional, cell-based", "details": "time 310.0 min"}, "A549 [19]": {"system": "A549", "test": "Antimigratory activity against human A549 cells measured upto 18 hrs by wound healing assay", "format": "functional, cell-based"}, "A549 [20]": {"system": "A549", "test": "Antitumor activity against human A549 cells xenografted in BALB/c mouse model assessed as decrease in fluorescence signal at 300 uM, iv measured upto 120 mins", "format": "functional, organism-based"}, "A549 [21]": {"system": "A549", "test": "Antitumor activity against human A549 cells xenografted in BALB/c mouse model assessed as reduction in fluorescence in heart at 300 uM, iv measured after 120 mins", "format": "functional, organism-based"}, "A549 [22]": {"system": "A549", "test": "Antitumor activity against human A549 cells xenografted in BALB/c mouse model assessed as reduction in fluorescence in liver at 300 uM, iv measured after 120 mins", "format": "functional, organism-based"}, "A549 [23]": {"system": "A549", "test": "Antitumor activity against human A549 cells xenografted in BALB/c mouse model assessed as reduction in fluorescence in spleen at 300 uM, iv measured after 120 mins", "format": "functional, organism-based"}, "A549 [24]": {"system": "A549", "test": "Antitumor activity against human A549 cells xenografted in BALB/c mouse model assessed as reduction in fluorescence in kidney at 300 uM, iv measured after 120 mins", "format": "functional, organism-based"}, "A549 [25]": {"system": "A549", "test": "Antitumor activity against human A549 cells xenografted in BALB/c mouse model assessed as reduction in fluorescence in lung at 300 uM, iv measured after 120 mins", "format": "functional, organism-based"}, "A549 [26]": {"system": "A549", "test": "Antitumor activity against human A549 cells xenografted in BALB/c mouse model assessed as inhibition of tumor growth at 300 uM, iv pre-irradiated with 808nm laser 1.5 W/cm2 for 10 mins and measured daily for 14 days", "format": "functional, organism-based", "details": "time 14.0 day"}, "[27]": {"test": "Toxicity in BALB/c mouse assessed as effect on heart at 300 uM, iv pre-irradiated with 808nm laser 1.5 W/cm2 for 10 mins and measured after 14 days by H and E staining based analysis", "format": "organism-based", "details": "in vivo, 336 h, time 14 day"}, "[28]": {"test": "Toxicity in BALB/c mouse assessed as effect on liver at 300 uM, iv pre-irradiated with 808nm laser 1.5 W/cm2 for 10 mins and measured after 14 days by H and E staining based analysis", "format": "organism-based", "details": "in vivo, 336 h, time 14 day"}, "[29]": {"test": "Toxicity in BALB/c mouse assessed as effect on spleen at 300 uM, iv pre-irradiated with 808nm laser 1.5 W/cm2 for 10 mins and measured after 14 days by H and E staining based analysis", "format": "organism-based", "details": "in vivo, 336 h, time 14 day"}, "[30]": {"test": "Toxicity in BALB/c mouse assessed as effect on lung at 300 uM, iv pre-irradiated with 808nm laser 1.5 W/cm2 for 10 mins and measured after 14 days by H and E staining based analysis", "format": "organism-based", "details": "in vivo, 336 h, time 14 day"}, "[31]": {"test": "Toxicity in BALB/c mouse assessed as effect on kidney at 300 uM, iv pre-irradiated with 808nm laser 1.5 W/cm2 for 10 mins and measured after 14 days by H and E staining based analysis", "format": "organism-based", "details": "in vivo, 336 h, time 14 day"}, "[32]": {"test": "Toxicity in BALB/c mouse assessed as effect on tumor at 300 uM, iv pre-irradiated with 808nm laser 1.5 W/cm2 for 10 mins and measured after 14 days by H and E staining based analysis", "format": "organism-based", "details": "in vivo, 336 h, time 14 day"}, "[33]": {"test": "Toxicity in BALB/c mouse assessed as effect on body weight loss at 300 uM, iv pre-irradiated with 808nm laser 1.5 W/cm2 for 10 mins and measured after 14 days by H and E staining based analysis", "format": "organism-based", "details": "in vivo, 336 h, time 14 day"}}, "note": "Calls of active or inactive are those of the source. The rule behind the calls is not given here."}
{"compound": "CC[N+]1=C(/C=C/C2=C3Oc4cc(O)ccc4C=C3CCC2)C(C)(C)c2ccccc21.[I-]", "values": [{"measurement": "Activity", "setting": "A549 [1]", "value": ">85", "unit": "%"}]}
{"compound": "CC[N+]1=C(/C=C/C2=C3Oc4cc(O)c(Br)cc4C=C3CCC2)C(C)(C)c2cc(Br)ccc21", "values": [{"measurement": "viability at 10 µM", "setting": "A549 [2]", "value": 40, "unit": "%"}, {"measurement": "viability at 20 µM", "setting": "A549 [3]", "value": "< 20", "unit": "%"}, {"measurement": "Activity", "setting": "A549 [4]", "value": "Active"}, {"measurement": "Activity", "setting": "A549 [5]", "value": "Active"}, {"measurement": "Activity", "setting": "A549 [6]", "value": "Active"}]}
{"compound": "CC[N+]1=C(/C=C/C2=C3Oc4cc(OP(=O)(O)O)c(Br)cc4C=C3CCC2)C(C)(C)c2cc(Br)ccc21.[I-]", "values": [{"measurement": "Activity", "setting": "A549 [4]", "value": "Active"}, {"measurement": "Activity", "setting": "A549 [6]", "value": "Active"}, {"measurement": "Activity", "setting": "[7]", "value": "Active"}, {"measurement": "Activity", "setting": "A549 [8]", "value": "Active"}, {"measurement": "Activity", "setting": "A549 [9]", "value": "inactive"}, {"measurement": "Activity", "setting": "L02", "value": "Active"}, {"measurement": "viability at 12 h", "setting": "[10]", "value": "> 85", "unit": "%"}, {"measurement": "Survival", "setting": "A549 [11]", "value": ">85", "unit": "%"}, {"measurement": "Survival", "setting": "HeLa [12]", "value": ">85", "unit": "%"}, {"measurement": "Activity", "setting": "A549 [13]", "value": "Active"}, {"measurement": "Activity", "setting": "HeLa [14]", "value": "Active"}, {"measurement": "viability at 10 µM", "setting": "A549 [15]", "value": "< 40", "unit": "%"}, {"measurement": "viability at 10 µM", "setting": "HeLa [16]", "value": "< 40", "unit": "%"}, {"measurement": "Activity", "setting": "A549 [17]", "value": "inactive"}, {"measurement": "Activity", "setting": "A549 [18]", "value": "Active"}, {"measurement": "Activity", "setting": "A549 [19]", "value": "inactive"}, {"measurement": "Activity", "setting": "A549 [20]", "value": "inactive"}, {"measurement": "Activity", "setting": "A549 [21]", "value": "Active"}, {"measurement": "Activity", "setting": "A549 [22]", "value": "Active"}, {"measurement": "Activity", "setting": "A549 [23]", "value": "Active"}, {"measurement": "Activity", "setting": "A549 [24]", "value": "Active"}, {"measurement": "Activity", "setting": "A549 [25]", "value": "Active"}, {"measurement": "AC30", "setting": "A549 [26]", "value": "Active"}, {"measurement": "Activity", "setting": "[27]", "value": "Non-Toxic"}, {"measurement": "Activity", "setting": "[28]", "value": "Non-Toxic"}, {"measurement": "Activity", "setting": "[29]", "value": "Non-Toxic"}, {"measurement": "Activity", "setting": "[30]", "value": "Non-Toxic"}, {"measurement": "Activity", "setting": "[31]", "value": "Non-Toxic"}, {"measurement": "Activity", "setting": "[32]", "value": "Non-Toxic"}, {"measurement": "Activity", "setting": "[33]", "value": "Non-Toxic"}]}
{"compound": "CC[N+]1=C(/C=C/C2=C3Oc4cc(O)ccc4C=C3CCC2)C(C)(C)c2cc(Br)ccc21.[I-]", "values": [{"measurement": "Activity", "setting": "A549 [1]", "value": ">85", "unit": "%"}]}
{"compound": "CC[N+]1=C(/C=C/C2=C3Oc4cc(O)c(Br)cc4C=C3CCC2)C(C)(C)c2ccccc21.[I-]", "values": [{"measurement": "Activity", "setting": "A549 [1]", "value": ">85", "unit": "%"}]}
